Data as given in publication PMC2854715, “Oxpholipin 11D: An Anti-Inflammatory Peptide That Binds Cholesterol and Oxidized Phospholipids” (PLoS ONE, 2010).
Entries after “also recorded” stand apart in the source; their conditions may differ. Non-standard residues stand in square brackets, D forms with d. Residues, ends and D or L forms follow the SMILES beside them. dDip = N[C@@H](C(=O)O)C(c1ccccc1)c1ccccc1

How the values were obtained:
apoE deficient mice = experiment: In vivo activity in apoE deficient mice: HDL inflammatory index; settings: 1 mg/kg subcutaneously, fasting female apoE deficient mice, HDL isolated 6 h after dose, normalized to LDL; Figure 3
Protocol: As previously described, [64], HAEC cells were treated with native LDL (250 µg/ml) in the absence or presence of HDL or tested peptides for 8 h. After these cultures were washed, the medium was replaced by fresh Medium 199 and the cultures were incubated for an additional 8 h. This culture medium was collected and assayed for monocyte chemotactic activity using chambers purchased from Neuroprobe (Cabin John, MD). After monocytes were added to the upper compartment, the chamber was incubated for 60 min at 37°C and subsequently disassembled. The membrane was rinsed, air dried, fixed with 1% glutaraldehyde, stained with 0.1% crystal violet dye, and 12 standardized high power fields were examined microscopically. The number of migrated monocytes was expressed as the mean ±SD of monocytes counted. Values obtained in the absence of HDL were normalized to a value of 1.0. Normalized values >1.0 after HDL addition were considered to be pro-inflammatory, and values <1.0 as being anti-inflammatory.
ApoE null mice on a C57BL/6J background, originally from Jackson Laboratories (Bar Harbor, ME), were maintained in a breeding colony in the Department of Laboratory and Animal Medicine at the David Geffen School of Medicine at UCLA. The mice were maintained on a chow diet (Ralston Purina, St. Louis, MO).
Six hours later, and with continued fasting, blood was removed from the retro-orbital sinus under mild isoflurane anesthesia, and anticoagulated with heparin (2.5 U/ml). Plasma was obtained and fractionated by FPLC. HDL-containing fractions were tested in HAEC cultures for their ability to inhibit LDL-induced monocyte chemotactic activity. All procedures conformed to regulations of the UCLA Animal Research Committee. An HDL inflammatory index was determined using the standard monocyte chemotaxis assay. Indices >1 were interpreted as pro-inflammatory, and indices <1 as anti-inflammatory.

[1] = SPR binding to 15(S)-HETE
Protocol: (§1) Binding experiments were done by surface plasmon resonance (SPR) on a BIAcore 3000 system (BiaCore AB, Piscataway, NJ). Peptide ligands and apoA-I were immobilized on a BIAcore CM5 sensor chip activated per the manufacturer's protocol with N-hydroxysuccinimide and 1-ethyl-3-(3-[…]) carbodiimide. After achieving adequate immobilization, the activated sensor surface was blocked with ethanolamine.
(§2) Lipid stock solutions were prepared in absolute ethanol and then diluted into a standard BIAcore buffer (HBS-EP), containing 10 mM HEPES, pH 7.4, 150 mM NaCl, 3 mM EDTA and 0.005% (v/v) surfactant P20. Lipid concentrations used in the binding studies were selected to give binding responses of 30-500 resonance units. Lipid stock solutions were prepared at 1 mg/ml in ethanol. […] Ethanol-free HBS-EP buffer was used during the dissociation phase. Lipid binding was measured by observing the change in the SPR angle as 150 µl of lipid analyte (various concentrations) in HBS-EP buffer flowed over the biosensor for 3 min at 50 µl/min. Biosensors were washed with 25 or 50% ethanol to regenerate them between binding studies. SPR data were corrected for background binding to the matrix of the chip (“blank” channel) and analyzed with BIAevaluation 4.1 software (Biacore, Piscataway, NJ).

[2] = SPR binding to arachidonic acid
Protocol: as §1, §2

[3] = SPR binding to 15(S)-HPETE
Protocol: as §1, §2

[4] = SPR binding to 12(S)-HETE
Protocol: as §1, §2

SPR binding to POVPC = experiment: SPR binding to POVPC
Protocol: as §1, §2

[5] = SPR binding to 12(S)-HPETE
Protocol: as §1, §2

[6] = SPR binding to 25-hydroxycholesterol; settings: peptide immobilized on CM5 chip, sterol in HBS-EP pH 7.4, mean ± SEM
Protocol: as §1, §2

[7] = SPR binding to 22(S)-hydroxycholesterol
Protocol: as §1, §2

[8] = SPR binding to cholesterol; settings: peptide immobilized on CM5 chip, sterol in HBS-EP pH 7.4, mean ± SEM
Protocol: as §1, §2

SPR binding to KOdiA-PC = experiment: SPR binding to KOdiA-PC
Protocol: as §1, §2

[9] = SPR binding to 4β-hydroxycholesterol; settings: peptide immobilized on CM5 chip, sterol in HBS-EP pH 7.4, mean ± SEM
Protocol: as §1, §2

[10] = SPR binding to linoleic acid
Protocol: as §1, §2

SPR binding to PGPC = experiment: SPR binding to PGPC
Protocol: as §1, §2

[11] = SPR binding to 5(S)-HPETE
Protocol: as §1, §2

[12] = SPR binding to 20(S)-hydroxycholesterol
Protocol: as §1, §2

[13] = SPR binding to palmitic acid
Protocol: as §1, §2

SPR binding to 9(S)-HODE = experiment: SPR binding to 9(S)-HODE
Protocol: as §1, §2

SPR binding to PEIPC = experiment: SPR binding to PEIPC
Protocol: as §1, §2

[14] = SPR binding to 13(S)-HODE
Protocol: as §1, §2

[15] = SPR binding to 13(S)-HPODE
Protocol: as §1, §2

Bovine albumin = target: T1, Bovine albumin (Bos taurus, UniProt P02769); experiment: SPR binding to bovine albumin (control); settings: peptide immobilized on CM5 chip, analyte in HBS-EP pH 7.4, mean ± SEM
T1 construct: purchased Sigma-Aldrich
Protocol: as §1, §2

[16] = SPR binding to 24(S)-hydroxycholesterol
Protocol: as §1, §2

[17] = KD(D-4F)/KD(OxP-11D), >1: OxP-11D binds with higher affinity
[18] = SPR, peptide immobilized on CM5 chip, lipid in HBS-EP pH 7.4, mean ± SEM
[19] = based on the KD ratios of Table 3
[20] = SPR, peptide immobilized on CM5 chip, sterol in HBS-EP pH 7.4, mean ± SEM

T1 sequence (P02769 25-607): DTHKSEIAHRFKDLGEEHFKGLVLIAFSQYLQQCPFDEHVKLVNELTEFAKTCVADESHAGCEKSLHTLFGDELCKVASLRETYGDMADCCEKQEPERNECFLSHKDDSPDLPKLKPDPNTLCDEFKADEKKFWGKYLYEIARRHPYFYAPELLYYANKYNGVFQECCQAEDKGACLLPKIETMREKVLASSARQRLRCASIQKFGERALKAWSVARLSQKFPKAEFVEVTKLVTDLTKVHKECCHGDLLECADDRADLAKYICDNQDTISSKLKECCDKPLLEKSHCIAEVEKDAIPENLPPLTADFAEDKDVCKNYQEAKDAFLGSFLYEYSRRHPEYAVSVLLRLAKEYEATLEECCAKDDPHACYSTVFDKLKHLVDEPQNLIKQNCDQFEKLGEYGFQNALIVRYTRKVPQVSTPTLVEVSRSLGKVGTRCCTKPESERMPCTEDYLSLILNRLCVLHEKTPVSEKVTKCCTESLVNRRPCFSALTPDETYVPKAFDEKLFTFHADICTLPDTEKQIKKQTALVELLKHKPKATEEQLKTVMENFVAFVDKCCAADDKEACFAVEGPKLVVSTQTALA

**Q.** With `CC(C)C[C@@H](NC(=O)CNC(=O)[C@H](NC(=O)[C@H](NC(=O)[C@@H](CCC(=O)O)NC(=O)[C@H](N)CCCNC(=N)N)C(c1ccccc1)c1ccccc1)[C@H](C)O)C(=O)N[C@H](C)C(=O)N[C@H](Cc1c[nH]c2ccccc12)C(=O)N[C@H](CCC(=O)O)C(=O)N[C@H](Cc1c[nH]c2ccccc12)C(=O)N[C@H](Cc1c[nH]c2ccccc12)C(=O)N[C@H](CCCNC(=N)N)C(=O)N[C@@H](C(=O)N[C@@H](C(N)=O)C(C)C)[C@H](C)O` [OxP-11D] (H-[dR][dE][dDip][dT]G[dL][dA][dW][dE][dW][dW][dR][dT][dV]-NH2; N-terminus assumed) as the compound, how does the “HDL Inflammatory Index in vivo” value (apoE deficient mice) read?
**A.** activity rivaled D-4F; also recorded: equally effective

**Q.** What about the “D-4F/OxP-11D KD Ratio, 15(S)-HETE” value [1, 17] of the same compound?
**A.** 0.236

**Q.** What about the Kd [1, 18] of the same compound?
**A.** 93 nM

**Q.** What about the “D-4F/OxP-11D KD Ratio, arachidonic acid” value [2, 17] of the same compound?
**A.** 0.012

**Q.** What about the Kd [2, 18] of the same compound?
**A.** 970 nM

**Q.** What about the “D-4F/OxP-11D KD Ratio, 15(S)-HPETE” value [3, 17] of the same compound?
**A.** 1.133

**Q.** And the Kd [3, 18]?
**A.** 45 nM

**Q.** And the “D-4F/OxP-11D KD Ratio, 12(S)-HETE” value [4, 17]?
**A.** 0.375

**Q.** And the Kd [4, 18]?
**A.** 48 nM

**Q.** And the “D-4F/OxP-11D KD Ratio, POVPC” value (SPR binding to POVPC; [17])?
**A.** 0.008

**Q.** What about the Kd (SPR binding to POVPC; [18]) of the same compound?
**A.** 300 nM

**Q.** What about the “D-4F/OxP-11D KD Ratio, 12(S)-HPETE” value [5, 17] of the same compound?
**A.** 5.000

**Q.** What about the Kd ([5]; SPR binding isotherm, Figure 5C, biosensor presented 4686 RU of OxP-11D) of the same compound?
**A.** 34.4 ± 10.1 nM

**Q.** And the “Affinity for 12(S)-HPETE relative to affinity for arachidonic acid” value [5, 19]?
**A.** approximately 28.5 fold

**Q.** And the “KD ± SEM, 25-hydroxycholesterol” value [6]?
**A.** BND

**Q.** And the “D-4F/OxP-11D KD Ratio, 22(S)-hydroxycholesterol” value [7, 17]?
**A.** 33.333

**Q.** And the Kd [7, 20]?
**A.** 450 nM

**Q.** What about the Kd [8] of the same compound?
**A.** 360 nM

**Q.** And the “D-4F/OxP-11D KD Ratio, KOdiA-PC” value (SPR binding to KOdiA-PC; [17])?
**A.** 0.003

**Q.** And the Kd (SPR binding to KOdiA-PC; [18])?
**A.** 190 nM

**Q.** And the “KD ± SEM, 4β-hydroxycholesterol” value [9]?
**A.** BND

**Q.** What about the “D-4F/OxP-11D KD Ratio, linoleic acid” value [10, 17] of the same compound?
**A.** 0.025

**Q.** What about the Kd [10, 18] of the same compound?
**A.** 600 nM

**Q.** What about the “D-4F/OxP-11D KD Ratio, PGPC” value (SPR binding to PGPC; [17]) of the same compound?
**A.** 0.002

**Q.** And the Kd (SPR binding to PGPC; [18])?
**A.** 3200 nM

**Q.** What about the “D-4F/OxP-11D KD Ratio, 5(S)-HPETE” value [11, 17] of the same compound?
**A.** 1.059

**Q.** And the Kd ([11]; SPR binding isotherm, Figure 5D, biosensor presented 4686 RU of OxP-11D)?
**A.** 16.9 ± 4.8 nM

**Q.** And the “Affinity for 5(S)-HPETE relative to affinity for arachidonic acid” value [11, 19]?
**A.** approximately 57 fold

**Q.** What about the “D-4F/OxP-11D KD Ratio, 20(S)-hydroxycholesterol” value [12, 17] of the same compound?
**A.** 7.647

**Q.** What about the Kd [12, 20] of the same compound?
**A.** 510 nM

**Q.** And the “D-4F/OxP-11D KD Ratio, palmitic acid” value [13, 17]?
**A.** 2.030

**Q.** And the Kd [13, 18]?
**A.** 330 nM

**Q.** What about the “D-4F/OxP-11D KD Ratio, 9(S)-HODE” value (SPR binding to 9(S)-HODE; [17]) of the same compound?
**A.** 0.714

**Q.** What about the Kd (SPR binding to 9(S)-HODE; [18]) of the same compound?
**A.** 21 nM

**Q.** What about the “D-4F/OxP-11D KD Ratio, PEIPC” value (SPR binding to PEIPC; [17]) of the same compound?
**A.** 0.005

**Q.** And the Kd (SPR binding to PEIPC; SPR binding isotherm, Figure 5B, biosensor presented 4686 RU of OxP-11D)?
**A.** 12.4 ± 4.4 nM

**Q.** What about the “D-4F/OxP-11D KD Ratio, 13(S)-HODE” value [14, 17] of the same compound?
**A.** 2.895

**Q.** And the Kd [14, 18]?
**A.** 3.8 nM

**Q.** And the “D-4F/OxP-11D KD Ratio, 13(S)-HPODE” value [15, 17]?
**A.** 0.677

**Q.** And the Kd [15, 18]?
**A.** 31 nM

**Q.** What about the Kd (Bovine albumin) of the same compound?
**A.** 690 nM

**Q.** And the “D-4F/OxP-11D KD Ratio, 24(S)-hydroxycholesterol” value [16, 17]?
**A.** 17.917

**Q.** And the Kd [16, 20]?
**A.** 240 nM
